Experimental data taken from patent US9493464B2, “Wee1 degradation inhibitors” (The Scripps Research Institute, priority 2012, dated 2016).
Where “and” joins values, the source holds several entries; their conditions need not be identical. Identical values can stand only once. Like-named read-outs stand apart in the source and are kept apart here.

How the values were obtained:
HEK-SW cells = test: Amyloid β 1-42 production (AlphaLISA); format: cell-based; conditions: 1 μM; supernatant at 48 hours post plating; result in words
Method: HEK-SW cells, which artificially overexpress mutated APP (K670N/M671L), the so-called Swedish mutation, were cultured on D-MEM supplemented with 10% FBS. HEK-SW cells were kindly provided by laboratory of Dr. Dennis Selkoe. HEK-SW cells were plated in 96 well plates (10,000 cells/well) and at 24 hours post plating replaced media and started treatments. […] DAPT, N [(3,5-Difluorophenyl)acetyl]-L-alanyl-2-phenyl]glycine-1,1-dimethylethyl ester, is a known inhibitor of γ-secretase purchased from TOCRIS Bioscience (Ellisville, Mo., USA). Supernatant of cells were collected at 48 hours post plating and concentration of Amyloid β 1-42 (Aβ 1-42) measured by AlphaLISA method (PerkinElmer, Waltham, Mass., USA) following instructions from the company.

CK1δ = CK1δ (Homo sapiens, UniProt P48730); test: In vitro kinase assay, CK1d, 32P-ATP filter binding (Reaction Biology Corporation); format: biochemical; conditions: 10 μM ATP; read-out: CK1δ IC50
CK1δ, sequence (P48730 whole entry): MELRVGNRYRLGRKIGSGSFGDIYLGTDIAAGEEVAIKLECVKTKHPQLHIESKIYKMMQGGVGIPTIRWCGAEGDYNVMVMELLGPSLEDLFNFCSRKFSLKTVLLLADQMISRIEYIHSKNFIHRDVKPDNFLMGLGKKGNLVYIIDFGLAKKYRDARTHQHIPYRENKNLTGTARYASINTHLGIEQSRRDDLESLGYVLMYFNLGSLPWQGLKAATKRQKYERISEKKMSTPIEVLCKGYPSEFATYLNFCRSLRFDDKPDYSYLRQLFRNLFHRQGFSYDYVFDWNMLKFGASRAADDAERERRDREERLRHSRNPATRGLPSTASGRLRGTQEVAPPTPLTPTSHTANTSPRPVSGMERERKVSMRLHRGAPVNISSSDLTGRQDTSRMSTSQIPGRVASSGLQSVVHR
Method: (§1) Compounds were tested in 10-dose IC50 mode with 3-fold serial dilution starting at 50 μM. […] Reactions were carried out at 10 μM ATP. Average and standard deviations of reactions carried out in triplicate are shown.
(§2) In vitro kinase assay to detect CK1 or FLT3 activity: CK1 and FLT3 assays as well as complete kinase profile of 296 kinases was performed by Reaction Biology Corporation. For FLT3 20 μM final Abltide was used, sequence: [[…]]. For CK1 (all isoforms) 20 μM CK1 tide was used, sequence: [KRRRAL[pS]VASLPGL] in a standard kinase assay with ^32P-ATP and purified kinase. Incorporation of ^32P-ATP into the peptide was measured after a filter-binding assay. In-house CK1d inhibition assays were performed using a standard homogenous time-resolved fluorescence resonance energy transfer (TR-FRET) format in 50 mM Hepes, pH 7.0, 2.5 mM MgCl2, 0.1 mg/ml bovine serum albumin, 1 mM DL-dithiothreitol, 0.01% Triton X-100 (all from Sigma-Aldrich). Briefly, the CK1δ substrate (DEKTDDE, containing CK1 consensus sequence; 4 μL of a 500 nM stock solution) is labeled with a small Ulight acceptor dye (PerkinElmer). In the presence of 10 μL of 10 nM CK1δ, the Ulight peptide is phosphorylated at a single amino acid that is specifically recognized by a europium chelate (Eu)-labeled phosphospecific antibody. Assays were performed in the presence of 2 μL of compound at different (measured) concentrations, and reactions were stopped by adding 10 μL of 4 nM Eu-anti-p-Topo-IIa (PerkinElmer) in Lance Detection Buffer (Perkin Elmer). Upon excitation of the Eu-labeled antibody, energy is transferred to the acceptor dye resulting in the emission of detected light at 665 nm.

LKB1 = biological target: T1, LKB1 (Homo sapiens, UniProt Q15831); test: In vitro kinase assay, LKB1; format: biochemical
T1 construct: Reaction Biology Corporation (inferred: panel performed there)
T1 sequence (Q15831 1-433): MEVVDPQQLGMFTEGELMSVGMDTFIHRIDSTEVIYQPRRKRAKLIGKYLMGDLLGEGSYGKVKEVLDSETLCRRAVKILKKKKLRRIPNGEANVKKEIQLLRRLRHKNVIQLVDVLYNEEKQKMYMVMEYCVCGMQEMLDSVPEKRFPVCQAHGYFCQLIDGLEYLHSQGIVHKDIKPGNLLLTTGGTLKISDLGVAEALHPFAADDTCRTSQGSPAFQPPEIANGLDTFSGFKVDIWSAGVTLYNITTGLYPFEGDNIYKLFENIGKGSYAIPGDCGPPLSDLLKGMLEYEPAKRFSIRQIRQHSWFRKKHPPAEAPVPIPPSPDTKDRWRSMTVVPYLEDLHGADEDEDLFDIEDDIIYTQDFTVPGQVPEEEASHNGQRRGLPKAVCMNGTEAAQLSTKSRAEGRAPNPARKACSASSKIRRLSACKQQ
T1 sequence (Q7RTN6 1-431 partner): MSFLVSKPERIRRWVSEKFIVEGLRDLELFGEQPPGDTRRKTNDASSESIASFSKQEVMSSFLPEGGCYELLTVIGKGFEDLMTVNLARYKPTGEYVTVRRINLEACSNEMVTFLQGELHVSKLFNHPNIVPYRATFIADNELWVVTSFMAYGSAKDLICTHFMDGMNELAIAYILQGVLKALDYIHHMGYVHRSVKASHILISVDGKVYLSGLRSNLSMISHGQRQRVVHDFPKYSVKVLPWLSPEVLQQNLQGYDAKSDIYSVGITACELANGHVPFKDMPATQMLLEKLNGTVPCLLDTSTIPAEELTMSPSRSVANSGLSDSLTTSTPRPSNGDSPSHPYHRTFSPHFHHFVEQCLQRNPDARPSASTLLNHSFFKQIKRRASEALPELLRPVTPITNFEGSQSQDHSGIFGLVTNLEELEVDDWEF
T1 sequence (Q9Y376 1-341 partner): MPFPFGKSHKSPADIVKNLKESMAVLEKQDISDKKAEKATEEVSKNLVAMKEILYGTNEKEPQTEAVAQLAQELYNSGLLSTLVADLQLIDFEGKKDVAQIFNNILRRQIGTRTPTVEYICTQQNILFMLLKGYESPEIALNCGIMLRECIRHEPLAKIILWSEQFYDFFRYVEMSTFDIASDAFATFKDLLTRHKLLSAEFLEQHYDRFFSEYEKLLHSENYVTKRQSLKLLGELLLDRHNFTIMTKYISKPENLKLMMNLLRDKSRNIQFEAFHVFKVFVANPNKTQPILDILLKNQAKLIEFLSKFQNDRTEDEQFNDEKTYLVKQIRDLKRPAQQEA
Method: as §1
as §2, with “Briefly, the CK1δ substrate (DEKTDDE, containing CK1 consensus sequence; 4 μL of a 500 nM stock solution) is labeled with a small Ulight acceptor dye (PerkinElmer). In the presence of 10 μL of 10 nM CK1δ, the Ulight peptide is phosphorylated at a single amino acid that is specifically recognized by a europium chelate (Eu)-labeled phosphospecific antibody.” left out

HeLa cells = test: PI-FACS cell cycle analysis; format: cell-based; conditions: 24 hours, result in words
From the text: FIG. 11 illustrates inhibition of CK1δ and CK1ε can induce an S/G2/M phase arrest.

COLO 205 (colon) = test: NCI Dose Growth Inhibition assay (NCI-60); format: cell-based; conditions: Homo sapiens
Method: (§3) Table 3, below, illustrates the activity of some of the compounds of the present invention in the National Cancer Institute's Dose Growth Inhibition assay against several human tumor cell lines selected from the NCI-60 panel.
(§4) NCI-60 Cancer Cell Line Screening was performed by the National Cancer Institute, using the procedures described on their website (http://dtp.nci.nih.gov/branches/btb/ivelsp.html)

UACC-62 (melanoma) = test: NCI Dose Growth Inhibition assay (NCI-60); format: cell-based; conditions: Homo sapiens
Method: as §3, §4

A498 (renal) = test: NCI Dose Growth Inhibition assay (NCI-60); format: cell-based; conditions: Homo sapiens
Method: as §3, §4

MDA-MB-468 (breast) = test: NCI Dose Growth Inhibition assay (NCI-60); format: cell-based; conditions: Homo sapiens
Method: as §3, §4

SNB-75 (CNS) = test: NCI Dose Growth Inhibition assay (NCI-60); format: cell-based; conditions: Homo sapiens
Method: as §3, §4

RXF393 (renal) = test: NCI Dose Growth Inhibition assay (NCI-60); format: cell-based; conditions: Homo sapiens, RXF 393
Method: as §3, §4

Compound	Aβ1-42 production (HEK-SW cells)	IC50 (CK1δ)	activity toward LKB1 (LKB1; result in words)	cell cycle arrest (HeLa cells)	GI50 (COLO 205 (colon); COLO 205) [nM]	GI50 (UACC-62 (melanoma); UACC-62) [nM]	GI50 (A498 (renal); A498) [nM]	GI50 (MDA-MB-468 (breast); MDA-MB-468) [nM]	GI50 (SNB-75 (CNS); SNB-75) [nM]	GI50 (RXF393 (renal)) [nM]	IC50 (LKB1) [nM]	GI50 (COLO 205 (colon); COLO 205 (colon), read-out: GI50) [nM]	GI50 (UACC-62 (melanoma); UACC-62 (melanoma), read-out: GI50) [nM]	GI50 (A498 (renal); A498 (renal), read-out: GI50) [nM]	GI50 (MDA-MB-468 (breast); MDA-MB-468 (breast), read-out: GI50) [nM]	GI50 (SNB-75 (CNS); SNB-75 (CNS), read-out: GI50) [nM]	GI50 (RXF393 (renal); RXF393 (renal), read-out: GI50) [nM]
O=[N+]([O-])c1cccc2[nH]c(CNc3nc(N4CCOCC4)nc4c3ncn4-c3ccsc3)nc12 [SR-1277]	inhibit Aβ1-42 production	49 nM	inactive	induced an S/G2/M arrest	15	14	17	< 10	< 10	< 10							
c1ccc2[nH]c(CNc3nc(N4CCOCC4)nc4c3ncn4-c3ccsc3)nc2c1 [SR-653234]	inhibit Aβ1-42 production	161 nM and 540 nM		induced an S/G2/M arrest							92	26	68	72	16	25	26
